According to patent US7737250B2, “Peptides for treating axonal damage, inhibition of neurotransmitter release and pain transmission, and blocking calcium influx in neurons” (Mount Sinai School of Medicine of New York University, priority 2003, dated 2010):
Entries after “also recorded” stand apart in the source; their conditions may differ.

Legend:
[1] = tested on: cell-surface myc-L1-CAM on ND-7 cells; experiment: L1-CAM diffusion behavior assay: movement of 9E10-coated beads bound to myc-L1-CAM (video microscopy, laser tweezers); assay type: cell-based, rat; details: ND-7 cells expressing wild-type myc-L1-CAM; cytochalasin D 2 μM, nocadazole 1 μM, NGF 100 ng/mL 1 hour
Description: Video microscopy, laser tweezers, and data analysis: The 9E10-coated latex beads were then placed and held with an optical gradient laser trap on the surface of transfected cells at a distance of between 0.5 and 1 μm from the leading edge for 2 seconds. The laser trap consisted of a Titanium Sapphire (Coherent; model 890) solid state laser pumped by a 5 W frequency-doubled Neodymnium Vanadate laser (Verdi; Coherent) and tuned to 800 nm. This wavelength was previously determined to generate the fewest heating artifacts in live cells (Svoboda and Block. Biomol Struct 1994;23:-247-285 and Choquet et al. Cell 1997;88:39-48). Laser power at the output of the Titanium Sapphire laser was 40 mW, and prepared beads were placed and held on the cell surface for less than 3 sec to further reduce the possibility of heating artifacts. Laser light was introduced through the television port of the Axiovert microscope.
Video images of bead movement were collected using a newvicon camera (Dage MTI; VE-1000N) and background subtraction and contrast enhancement were carried using a Hamamatsu Argus 20 image processor. Raw data were recorded to sVHS video tape for subsequent analysis. Video recordings were subsequently digitized onto an Intel processor-based computer running the Isee imaging software (Isee Imaging) running under Red Hat Linux 7.1. Quantification of bead movement was carried out in Isee. Diffusional analysis was carried out using a custom spreadsheet in Excel (Microsoft). This spreadsheet carries out 4 operations: first, it scales the data from pixel measurements to nm using the appropriate scale factor (determined by the magnification used to observe bead movement); second, it subtracts the first point from all of the data, to set the origin at 0,0 (x,y coordinates); third, it rotates (in two dimensional space) the data around the origin so that the orientation of the cell is the same from trial to trial (here, the data was set so that the cells all face to the left); and fourth, the spreadsheet calculates the mean square displacement (MSD) data which are used to calculate diffusion coefficients and bead velocity. Individual traces were scored blind for classes of behavior. Statistical analysis of percentages of trials was carried out using chi-squared analysis or a Fisher's exact probability test.
MSD values were calculated as previously described (see Qian et al, 1991; Biophysical Journal 60 p910). For these calculations, the squared displacement (a^2+b^2; where a=xn+t−xn, b=a=yn+t−yn for any two points separated by time t) of the bead was calculated between two points in the data set. The mean of the squared displacements was calculated for each time interval t=1 to m, where m is the time interval that equals 10% of the length of the data set. The mean displacement was plotted with respect to time giving a curve with a linear or quadratic shape, depending on the behavior of the bead. Diffusion rates and velocity were calculated by fitting the curve with the equation MSD=4Dt+v^2t^2, where D is the diffusion coefficient, v is the velocity and t is time. D and v were calculated for each bead independently and presented as averages or as individual values, as described in each case.
Cell culture and transfection: ND-7 cells (rat neuroblastoma/DRG hybrid cells) were plated and transfected with pMyc-L1-CAM, pMyc-L1-CAM-YF, pMyc-L1-CAM-YH, or pMyc-L1-CAM-STOP expression constructs as described in Example 3, supra.
In some instances, ND-7 cells transfected with pMyc-L1-CAM were treated with the cytoskeletal inhibitor cytochalasin D (2 μM; Sigma) or nocadazole (1 μM; Sigma). For these experiments treatment with DMSO (0.01%) vehicle alone served as the negative control.
In some instances, ND-7 cells transfected with pMyc-L1-CAM were treated with neural growth factor (NGF) to stimulate phosphorylation of tyrosine 1229 (Y1229) of the L1-CAM cytoplasmic domain, and thereby inhibit ankyrin binding. […]

[2] = biological target: T1, L1-CAM-ankyrin interactions (Homo sapiens, UniProt Q01484); experiment: Ankyrin recruitment assay: ankyrinB co-localization with L1-CAM at the membrane of transfected 293 cells; assay type: cell-based; details: 50 ng/mL EGF or 100 ng/mL NGF for 1 hour
T1 construct: expressed in transfected cells; host or cells: human kidney 293 cells
T1 sequence (Q01484 whole entry): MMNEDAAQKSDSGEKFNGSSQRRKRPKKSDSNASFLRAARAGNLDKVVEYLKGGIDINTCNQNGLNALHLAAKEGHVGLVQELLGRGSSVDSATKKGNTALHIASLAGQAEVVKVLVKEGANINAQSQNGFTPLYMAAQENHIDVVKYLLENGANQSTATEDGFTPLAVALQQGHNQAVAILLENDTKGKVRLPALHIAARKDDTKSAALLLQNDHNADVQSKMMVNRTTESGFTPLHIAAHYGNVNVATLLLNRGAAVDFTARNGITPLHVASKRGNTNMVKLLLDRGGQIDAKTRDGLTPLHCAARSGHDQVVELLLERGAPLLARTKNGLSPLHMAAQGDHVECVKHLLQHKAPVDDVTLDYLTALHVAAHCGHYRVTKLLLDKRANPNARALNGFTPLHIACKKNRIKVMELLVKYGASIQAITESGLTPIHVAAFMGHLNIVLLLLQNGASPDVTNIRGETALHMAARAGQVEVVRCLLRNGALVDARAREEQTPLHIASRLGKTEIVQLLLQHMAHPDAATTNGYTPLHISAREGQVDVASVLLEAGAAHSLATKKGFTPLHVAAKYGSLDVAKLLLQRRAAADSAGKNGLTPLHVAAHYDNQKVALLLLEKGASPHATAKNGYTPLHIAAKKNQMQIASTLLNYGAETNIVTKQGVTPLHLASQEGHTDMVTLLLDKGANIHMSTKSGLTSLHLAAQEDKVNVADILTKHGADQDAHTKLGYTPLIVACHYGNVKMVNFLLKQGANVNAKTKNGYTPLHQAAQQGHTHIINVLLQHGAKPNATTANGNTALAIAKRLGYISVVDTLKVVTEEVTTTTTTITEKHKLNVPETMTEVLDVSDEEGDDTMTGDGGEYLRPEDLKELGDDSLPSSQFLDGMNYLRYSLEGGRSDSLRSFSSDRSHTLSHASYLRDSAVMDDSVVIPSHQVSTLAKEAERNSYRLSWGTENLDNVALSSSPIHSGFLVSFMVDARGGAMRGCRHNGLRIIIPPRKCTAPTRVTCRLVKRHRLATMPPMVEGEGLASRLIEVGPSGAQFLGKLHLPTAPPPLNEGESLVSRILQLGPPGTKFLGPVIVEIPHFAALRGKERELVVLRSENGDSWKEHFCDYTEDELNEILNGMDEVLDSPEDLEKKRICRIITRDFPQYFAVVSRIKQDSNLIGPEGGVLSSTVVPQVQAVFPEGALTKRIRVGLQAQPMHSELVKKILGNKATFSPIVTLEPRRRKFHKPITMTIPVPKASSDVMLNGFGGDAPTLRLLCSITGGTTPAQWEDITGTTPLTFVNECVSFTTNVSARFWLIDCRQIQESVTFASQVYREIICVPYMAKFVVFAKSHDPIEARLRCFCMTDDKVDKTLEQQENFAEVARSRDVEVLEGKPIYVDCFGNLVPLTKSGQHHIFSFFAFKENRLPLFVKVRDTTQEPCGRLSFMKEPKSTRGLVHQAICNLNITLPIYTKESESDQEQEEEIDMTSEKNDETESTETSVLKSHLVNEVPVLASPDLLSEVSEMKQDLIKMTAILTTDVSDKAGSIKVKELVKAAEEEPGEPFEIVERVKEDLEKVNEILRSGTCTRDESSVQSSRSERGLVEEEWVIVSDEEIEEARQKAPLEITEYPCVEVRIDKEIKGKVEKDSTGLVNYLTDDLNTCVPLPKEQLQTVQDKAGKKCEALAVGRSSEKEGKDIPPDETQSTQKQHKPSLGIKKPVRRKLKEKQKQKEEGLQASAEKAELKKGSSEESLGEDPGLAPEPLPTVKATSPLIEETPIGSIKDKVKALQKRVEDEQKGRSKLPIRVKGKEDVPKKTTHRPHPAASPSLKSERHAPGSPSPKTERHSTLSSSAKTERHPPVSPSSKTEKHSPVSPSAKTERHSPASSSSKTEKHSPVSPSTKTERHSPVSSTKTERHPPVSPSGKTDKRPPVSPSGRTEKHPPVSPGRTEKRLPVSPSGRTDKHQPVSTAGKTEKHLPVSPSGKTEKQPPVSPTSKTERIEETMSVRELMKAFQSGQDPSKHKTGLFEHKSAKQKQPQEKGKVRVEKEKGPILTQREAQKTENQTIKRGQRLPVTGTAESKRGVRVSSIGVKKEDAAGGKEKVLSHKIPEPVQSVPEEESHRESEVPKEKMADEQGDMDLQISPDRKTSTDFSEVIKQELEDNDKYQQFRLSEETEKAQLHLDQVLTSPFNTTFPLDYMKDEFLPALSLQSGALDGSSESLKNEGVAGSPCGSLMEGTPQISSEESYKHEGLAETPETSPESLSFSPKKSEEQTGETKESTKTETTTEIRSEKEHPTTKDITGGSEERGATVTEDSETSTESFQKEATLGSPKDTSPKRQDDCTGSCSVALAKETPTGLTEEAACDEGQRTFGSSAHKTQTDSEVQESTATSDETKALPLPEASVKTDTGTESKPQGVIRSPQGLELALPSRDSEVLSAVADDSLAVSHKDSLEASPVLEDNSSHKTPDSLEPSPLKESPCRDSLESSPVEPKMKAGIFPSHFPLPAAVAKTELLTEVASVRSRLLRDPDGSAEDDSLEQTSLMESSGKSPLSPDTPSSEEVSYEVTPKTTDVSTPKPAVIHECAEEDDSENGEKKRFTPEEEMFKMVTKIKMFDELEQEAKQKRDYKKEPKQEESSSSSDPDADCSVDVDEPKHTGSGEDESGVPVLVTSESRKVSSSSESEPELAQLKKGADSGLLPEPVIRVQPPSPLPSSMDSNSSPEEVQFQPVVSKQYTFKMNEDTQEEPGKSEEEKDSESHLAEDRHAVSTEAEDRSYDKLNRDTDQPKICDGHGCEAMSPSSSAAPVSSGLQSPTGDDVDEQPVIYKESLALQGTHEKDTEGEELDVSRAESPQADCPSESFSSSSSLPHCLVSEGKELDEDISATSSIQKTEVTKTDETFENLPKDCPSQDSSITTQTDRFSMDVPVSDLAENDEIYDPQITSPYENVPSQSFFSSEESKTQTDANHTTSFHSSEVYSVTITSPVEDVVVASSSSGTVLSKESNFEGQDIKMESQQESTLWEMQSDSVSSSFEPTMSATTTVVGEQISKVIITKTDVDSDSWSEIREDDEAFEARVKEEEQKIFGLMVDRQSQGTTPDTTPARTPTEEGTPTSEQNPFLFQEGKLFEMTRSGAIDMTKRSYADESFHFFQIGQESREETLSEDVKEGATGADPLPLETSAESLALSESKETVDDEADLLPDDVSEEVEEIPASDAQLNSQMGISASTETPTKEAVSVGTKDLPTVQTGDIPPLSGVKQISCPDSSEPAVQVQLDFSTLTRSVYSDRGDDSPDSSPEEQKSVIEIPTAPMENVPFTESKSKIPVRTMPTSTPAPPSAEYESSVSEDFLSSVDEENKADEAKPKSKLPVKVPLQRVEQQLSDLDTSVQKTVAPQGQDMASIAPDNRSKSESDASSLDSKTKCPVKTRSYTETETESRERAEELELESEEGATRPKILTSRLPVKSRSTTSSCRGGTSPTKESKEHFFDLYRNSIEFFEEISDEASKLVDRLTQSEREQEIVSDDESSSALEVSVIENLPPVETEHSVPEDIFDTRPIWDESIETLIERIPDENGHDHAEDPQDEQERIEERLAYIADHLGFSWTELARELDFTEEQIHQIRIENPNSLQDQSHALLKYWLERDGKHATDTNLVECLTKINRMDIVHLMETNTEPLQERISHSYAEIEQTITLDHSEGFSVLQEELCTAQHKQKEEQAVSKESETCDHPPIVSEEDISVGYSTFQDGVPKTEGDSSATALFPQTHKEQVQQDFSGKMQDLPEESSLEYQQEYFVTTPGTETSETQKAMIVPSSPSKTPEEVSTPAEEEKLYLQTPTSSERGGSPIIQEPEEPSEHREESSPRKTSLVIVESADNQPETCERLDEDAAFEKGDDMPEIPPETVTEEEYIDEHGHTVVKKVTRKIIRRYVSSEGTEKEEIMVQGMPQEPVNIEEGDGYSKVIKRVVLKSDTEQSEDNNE
Experimental: Cell culture aid transfection: Human kidney 293 cells were cultured in DMEM medium (Gibco) supplemented with penicillin, streptomycin, L-glutamine, and 10% fetal bovine serum (Hyclone). The pMyc-L1-CAM or pL1-CAM-GFP expression constructs were transfected into cultured human kidney 293 cells using Lipofectamine plus (Invitrogen) according to manufacturer instructions. Cells were cultured for 24-48 hours and then used, or cultured continuously in the presence of 0.5 μg.mL G418 (Gibco) to select for stably transfected cells lines, to generate stable pooled lines of L1-CAM-expressing cells.
In some instances, transfected 293 cells were treated with neural growth factor (NGF) or epidermal growth factor (EGF) to stimulate phosphorylation of tyrosine 1229 (Y1229) of the L1-CAM cytoplasmic domain, and thereby inhibit ankyrin binding. In these cases, cells were treated with 50 ng/mL EGF (Gibco) or 100 ng/mL NGF (Gibco) for 1 hour prior to the assay. […]
Ankyrin and L1-CAM were detected by indirect immunofluorescence in double-labeled confocal sections through cell aggregates to permit the visualization of L1 and ankyrinB at the cell membrane. Expression of myc-L1-CAM was detected using a polyclonal anti-L1-CAM rabbit antibody. […] Ankyrin was detected using a monoclonal anti-ankyrinB mouse antibody (BD PharMingen). […]
Quantification of ankyrin immunolocalization: Confocal micrographs were then used to quantify the degree of ankyrin localization to the cell membrane of myc-L1-CAM expressing cells. Images were analyzed using ImageJ (NIH) under Macintosh OSX. The method for quantifying ankyrinB localization to the membrane uses densitometry of a line scan perpendicular to and crossing a cell-cell junction. […]
The densitometry intensity profile of the scanned line was used to determine a minimum ankyrinB signal for comparison to the value of the ankyrinB signal at the point where the maximum signal in the L1-CAM channel occurs. […] Minima were determined from the regions of the line overlapping the cytoplasm of either of the two cells. […]

[3] = tested on: cell-surface myc-L1-CAM on ND-7 cells; experiment: Cytoskeleton attachment assay: resistance of 9E10 bead-myc-L1-CAM complexes to lateral displacement by laser trap; assay type: cell-based, rat; details: 2 μM cytochalasin D; ND-7 cells expressing myc-L1-CAM
Experimental: Cell culture and transfection: ND-7 cells (rat neuroblastoma/DRG hybrid cells) were cultured as described in Example 2. 24 hours prior to transfection, cultured cells were plated on coverslips coated with poly-D-lysine and laminin sealed to the bottom of 35 mm culture dishes (Mattek Corp.). Plated cells were transfected with the pL1-CAM or pMyc-L1-CAM expression constructs using Lipofectamine plus (Invitrogen) according to manufacturer's instructions. Transfected cells were cultured for 24-36 hours, and then used for live microscopy. For laser trap and video microscopy, the medium was replaced with phenol red-free serum-free L15 medium (air buffered) with 20 mM HEPES, 0.1% BSA, 0.5% ovalbumin. Cells transfected with the bicistronic expression constructs express a single mRNA encoding both the myc-L1-CAM proteins and EGFP, such that transfected cells were identified by EGFP fluorescence. […]
Video microscopy, laser tweezers, and data analysis: The 9E10-coated latex beads were then placed and held with an optical gradient laser trap on the surface of transfected cells at a distance of between 0.5 and 1 μm from the leading edge for 2 seconds. […] This wavelength was previously determined to generate the fewest heating artifacts in live cells (Svoboda and Block. Biomol Struct 1994;23:-247-285 and Choquet et al. Cell 1997;88:39-48). […]

Cav2.2 channels = experiment: Calcium channel distribution by confocal indirect immunofluorescence in DRG neurons; assay type: cell-based, chicken; details: DRG neurons; application of the transmitter
Experimental: Antibodies: Primary antibody: rabbit anti-pan α1 binds Ca channel (1:200 dilution, [1.5 μg/ml) [Alomone Labs; Jerusalem, Israel]. Secondary antibodies: (1:200 dilution, 10 μg/ml): tetramenthylrhodamine conjugated goat anti-rabbit IgG (H+L) [Molecular Probes; Eugene, OR]
Dorsal root ganglia were dissected from 11 to 12 day old embryos, incubated for 30 min in saline containing nominal Ca 2^+ and Mg 2^+, and 0.05% collagenase (type A, Boehringer Mannheim). Ganglia were dissociated mechanically into single cells by trituration in culture medium containing Dulbecco's modified Eagle's medium supplemented with 10% horse serum, 5% chicken embryo extract, penicillin, streptomycin, glutamine, and nerve growth factor. Cells were plated at a density of ˜50,000 cells/collagen-coated 35 mm tissue culture dish and studied between 1 and 3 days in vitro.
Immunohistochemistry: Cultures grown on poly-L-lysine cover glass slips were exposed to saline or 100 mM NE (norepinephrine), fixed and permeabilized in methanol at −20° C. for 15-minutes or 20 second (for residual experiment) followed by 3×5-min washes in PHEM Buffer [60 mM PIPES, 25 mM HEPES, 10 mM EGTA, 2 mM MgCl2, pH 6.9]. Cells were alternatively fixed with 4% paraformaldehyde in PHEM buffer, pH 6.9 for 20-min, washed 3×3-min with PHEM buffer and permeabilization with 0.1% Triton X-100/PHEM buffer for 3-min. Blocking was performed using 5% BSA in PHEM Buffer for 1-h at 4 C. Following overnight incubation with primary antibody in 1% BSA and 1% normal goat sera in PHEM Buffer at 4 C. After washes with PHEM Buffer, cover slips were incubated with fluorophore-conjugated secondary antibodies in 1% BSA PHEM Buffer for 1.5 hours at room temperature in the dark. […]
Images of fixed cells were obtained with a pinhole setting of 0.95 using a UV 100× 1.4NA oil Leica objective lens and an optical zoom between 1.4 and 2× at slow acquisition speed with 4× frame averaging accumulation. The number of sections was calculated by the Leica TCS software based on acquisition of sections at 240 nm intervals in the Z-plane. […]

[4] = tested on: secretion of Substance P from DRG neurons; experiment: Substance P secretion, single-cell immunoblot assay; assay type: cell-based, chick; details: baclofen in addition to AP-YF peptide
Experimental: Secretion Assay: Secretion of substance P was analyzed using the single-cell immunoblot method adapted from Huang and Neher (Huang, L. Y., Neher, E. (1996) Neuron. 17, 135-45.). Briefly, polyvinylidene difluoride transfer membranes (Immobilon P brand from Millipore) were cut to […] and placed in a 6-well plate. Membranes were pre-wetted with methanol for 20 s, rinsed with distilled water and allowed to equilibrate in test solution for >1 hr. In parallel, DRG cells plated were incubated with media containing AP-YF or AP-Scr (1.4 μg/ml) for 1 hour. This media was removed, and replaced with 70 μl of test solution. The membranes were then placed on top of the cells, and allowed to incubate at 37° C. in a humidified CO2 incubator for 30 min. The membranes were then carefully removed from the cells and allowed to dry completely and fixed with powdered paraformaldehyde at 80° C. for 1 hr. Fixed membranes were rinsed in PBS (1 mM KH2PO4, 10 mM Na2HPO4, 137 mM NaCl, 2.7 mM KCl) containing 1% Triton X-100 (PBS-T) to remove excess paraformaldehyde, and blocked with PBS-T containing 3% fetal bovine serum (FBS) for 30 min at room temperature. The membranes were incubated with anti-substance P antibody (Santa Cruz) at 1:200 dilution in PBS-T with 1% FBS overnight in 37° C. incubator. The next day the membranes were developed with a peroxidase/diamninobenzidine (DAB) reaction using the ABC staining kit from Santa Cruz Biotechnology. Images were taken using a CCD camera, and analyzed using Photoshop and NIH image software. Data were plotted by assigning an upper and lower limit of gray values and plotting % of cells at a range within those limits. By plotting graphs as % of cells in a dynamic range, multiple experimental runs were pooled.

Compound	% of trials diffusing [1] [%]	% of trials retrograde [1] [%]	% of trials stationary [1] [%]	also measured
COC(=O)Nc1nc2cc(C(=O)c3cccs3)ccc2[nH]1 [nocadazole]	25	43.75	31.25	
EGF: epidermal growth factor (Gibco)				ankyrin B colocalization with L1-CAM at the cell membrane [2]: significant reduction; also recorded: inhibited ankyrin membrane localization
C=C1[C@@H](C)[C@H]2[C@H](Cc3ccccc3)NC(=O)[C@]23[C@H](OC(C)=O)/C=C/[C@@](C)(O)C(=O)[C@@H](C)C/C=C/[C@H]3[C@@H]1O [cytochalasin D]	83.3	0	16.7	bead rigidity on the cell surface (resistance to lateral displacement) [3]: entirely abolished
NC[C@H](O)c1ccc(O)c(O)c1 (racemic) [norepinephrine, Norepinephrine]				punctate distribution of Cav2.2 channels in the membrane (Cav2.2 channels): rapidly (within 2s) reduced
NCC(CC(=O)O)c1ccc(Cl)cc1 (racemic) [Baclofen, 4-Amino-3-[4-chlorophenyl] butanoic acid]				DRG neurons secreting low levels of Substance P [4]: 75%
